± gives the expanded uncertainty stated by the source.
Test: xn = mol fraction of the nth substance listed
Settings: for surface tension liquid-gas: Wilhelmy plate method; for mass density: 101 kPa, Liquid, Vibrating tube method

CCCCn1cc[n+](C)c1.C[C@H](O)C(=O)[O-] [1-butyl-3-methylimidazolium L-lactate] + O
Settings	mass density, 298.15 K [kg/m3]	mass density, 308.15 K [kg/m3]	mass density, 318.15 K [kg/m3]	surface tension liquid-gas, 298.15 K [mN/m]	surface tension liquid-gas, 308.15 K [mN/m]	surface tension liquid-gas, 318.15 K [mN/m]
x1 = 0.0097	–	–	–	53.67 ± 0.63	51.15 ± 0.6	49.79 ± 0.6
x1 = 0.0303	–	–	–	47.86 ± 0.56	46.42 ± 0.55	45.58 ± 0.54
x1 = 0.0401	–	–	–	46.95 ± 0.55	46.08 ± 0.54	45.57 ± 0.54
x1 = 0.0602	–	–	–	46.15 ± 0.54	45.87 ± 0.54	45.55 ± 0.53
x1 = 0.0801	–	–	–	46.98 ± 0.54	46.54 ± 0.54	46.18 ± 0.54
x1 = 0.1	–	–	–	46.96 ± 0.54	46.83 ± 0.54	46.15 ± 0.53
x1 = 0.1001	1042.3 ± 0.9	1039.4 ± 0.9	1036.4 ± 0.9	–	–	–
x1 = 0.2001	1061.4 ± 0.8	1058.3 ± 0.8	1055 ± 0.8	46.03 ± 0.51	44.94 ± 0.5	44.2 ± 0.5
x1 = 0.2999	1075 ± 0.8	1071 ± 0.8	1066.6 ± 0.8	–	–	–
x1 = 0.3003	–	–	–	44.61 ± 0.48	43.59 ± 0.48	42.86 ± 0.47
x1 = 0.3985	1083.6 ± 0.7	1079.1 ± 0.7	1074.1 ± 0.7	–	–	–
x1 = 0.3997	–	–	–	44.08 ± 0.46	43.16 ± 0.46	42.44 ± 0.45
x1 = 0.4994	–	–	–	43.46 ± 0.44	43.07 ± 0.44	42.27 ± 0.44
x1 = 0.5023	1090.3 ± 0.7	1085.4 ± 0.7	1080.2 ± 0.7	–	–	–
x1 = 0.5989	–	–	–	43.47 ± 0.43	42.87 ± 0.42	42.11 ± 0.42
x1 = 0.6002	1095.7 ± 0.6	1090.2 ± 0.6	1084.3 ± 0.6	–	–	–
x1 = 0.6982	–	–	–	43.41 ± 0.41	42.62 ± 0.41	42.02 ± 0.41
x1 = 0.6986	1099.8 ± 0.6	1093.5 ± 0.6	1087.4 ± 0.6	–	–	–
x1 = 0.8	1103.3 ± 0.6	1096.6 ± 0.6	1090.3 ± 0.5	–	–	–
x1 = 0.8017	–	–	–	43.35 ± 0.4	42.54 ± 0.39	42 ± 0.39
x1 = 0.8965	–	–	–	43.2 ± 0.38	42.48 ± 0.38	41.82 ± 0.38
x1 = 0.9001	1107.2 ± 0.5	1100.3 ± 0.5	1093.8 ± 0.5	–	–	–
x1 = 1	1111.2 ± 0.5	1104.2 ± 0.5	1097.7 ± 0.5	42.92 ± 0.37	42.37 ± 0.37	42.01 ± 0.37

CCCCO [butan-1-ol] + CCCCn1cc[n+](C)c1.C[C@H](O)C(=O)[O-]
x2 = 0
Settings	mass density [kg/m3]	surface tension liquid-gas [mN/m]
298.15 K	805.7 ± 0.4	23.89 ± 0.3
308.15 K	798 ± 0.4	23.46 ± 0.3
318.15 K	790.1 ± 0.4	22.62 ± 0.3

CCO [ethanol] + CCCCn1cc[n+](C)c1.C[C@H](O)C(=O)[O-]
x2 = 0
Settings	mass density [kg/m3]	surface tension liquid-gas [mN/m]
298.15 K	784.7 ± 0.4	22.11 ± 0.31
308.15 K	776.2 ± 0.4	21.13 ± 0.3
318.15 K	767 ± 0.4	20.48 ± 0.3

CCCCn1cc[n+](C)c1.C[C@H](O)C(=O)[O-] [1-butyl-3-methylimidazolium L-lactate] + CCO
Settings	mass density [kg/m3]	surface tension liquid-gas [mN/m]
298.15 K, x1 = 0.01	–	22.44 ± 0.31
298.15 K, x1 = 0.0299	–	22.99 ± 0.31
298.15 K, x1 = 0.0497	–	23.47 ± 0.31
298.15 K, x1 = 0.0708	–	24 ± 0.31
298.15 K, x1 = 0.0944	–	24.54 ± 0.31
298.15 K, x1 = 0.0997	897.2 ± 0.5	–
298.15 K, x1 = 0.1987	959.5 ± 0.4	–
298.15 K, x1 = 0.2001	–	26.97 ± 0.31
298.15 K, x1 = 0.3018	–	29.2 ± 0.31
298.15 K, x1 = 0.3066	1002 ± 0.4	–
298.15 K, x1 = 0.4019	–	31.51 ± 0.32
298.15 K, x1 = 0.4106	1028.2 ± 0.4	–
298.15 K, x1 = 0.4954	1042.5 ± 0.4	–
298.15 K, x1 = 0.499	–	33.45 ± 0.33
298.15 K, x1 = 0.5989	1058.4 ± 0.4	–
298.15 K, x1 = 0.6216	–	35.27 ± 0.33
298.15 K, x1 = 0.6985	1070.8 ± 0.5	–
298.15 K, x1 = 0.7009	–	36.3 ± 0.34
298.15 K, x1 = 0.7524	–	37.06 ± 0.34
298.15 K, x1 = 0.7869	1082.1 ± 0.5	–
298.15 K, x1 = 0.8381	–	38.77 ± 0.35
298.15 K, x1 = 0.8978	1095.2 ± 0.5	–
298.15 K, x1 = 1	1111.2 ± 0.5	42.92 ± 0.37
308.15 K, x1 = 0.01	–	21.58 ± 0.31
308.15 K, x1 = 0.0302	–	22.12 ± 0.31
308.15 K, x1 = 0.0474	–	22.62 ± 0.31
308.15 K, x1 = 0.0707	–	23.22 ± 0.31
308.15 K, x1 = 0.0952	–	23.9 ± 0.31
308.15 K, x1 = 0.0997	888.9 ± 0.5	–
308.15 K, x1 = 0.1987	951.9 ± 0.4	–
308.15 K, x1 = 0.2028	–	26.53 ± 0.31
308.15 K, x1 = 0.3026	–	28.8 ± 0.31
308.15 K, x1 = 0.3066	994.7 ± 0.4	–
308.15 K, x1 = 0.406	–	31.08 ± 0.32
308.15 K, x1 = 0.4106	1021.1 ± 0.4	–
308.15 K, x1 = 0.4954	1034.3 ± 0.4	–
308.15 K, x1 = 0.4966	–	32.88 ± 0.32
308.15 K, x1 = 0.5989	1050.4 ± 0.4	–
308.15 K, x1 = 0.6053	–	34.78 ± 0.33
308.15 K, x1 = 0.6882	–	35.51 ± 0.34
308.15 K, x1 = 0.6985	1062.4 ± 0.5	–
308.15 K, x1 = 0.7869	1073.8 ± 0.5	–
308.15 K, x1 = 0.7888	–	36.81 ± 0.34
308.15 K, x1 = 0.8313	–	37.9 ± 0.35
308.15 K, x1 = 0.8978	1086.9 ± 0.5	–
308.15 K, x1 = 1	1104.2 ± 0.5	42.37 ± 0.37
318.15 K, x1 = 0.01	–	20.88 ± 0.3
318.15 K, x1 = 0.0304	–	21.56 ± 0.31
318.15 K, x1 = 0.0448	–	21.9 ± 0.31
318.15 K, x1 = 0.0702	–	22.56 ± 0.31
318.15 K, x1 = 0.0958	–	23.39 ± 0.31
318.15 K, x1 = 0.0997	881.9 ± 0.5	–
318.15 K, x1 = 0.1987	944 ± 0.4	–
318.15 K, x1 = 0.203	–	26.09 ± 0.31
318.15 K, x1 = 0.3032	–	28.36 ± 0.31
318.15 K, x1 = 0.3066	987.7 ± 0.4	–
318.15 K, x1 = 0.4034	–	30.45 ± 0.32
318.15 K, x1 = 0.4106	1014.5 ± 0.4	–
318.15 K, x1 = 0.4954	1028.3 ± 0.4	–
318.15 K, x1 = 0.5017	–	32.46 ± 0.32
318.15 K, x1 = 0.5989	1042.6 ± 0.4	–
318.15 K, x1 = 0.6042	–	34.23 ± 0.33
318.15 K, x1 = 0.6657	–	34.84 ± 0.33
318.15 K, x1 = 0.6985	1055.3 ± 0.4	–
318.15 K, x1 = 0.7561	–	35.48 ± 0.34
318.15 K, x1 = 0.7869	1066.9 ± 0.5	–
318.15 K, x1 = 0.8319	–	36.61 ± 0.34
318.15 K, x1 = 0.8978	1079.8 ± 0.5	–
318.15 K, x1 = 1	1097.7 ± 0.5	42.01 ± 0.37
